Measured values taken from PubChem BioAssay (NCI).
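Growth conditions: 96-well plates. Treatment: test compound, 48 hours, 5 concentrations. Analysis: linear interpolation between bracketing concentrations; unreached endpoints set to highest concentration. At the TGI there is no net growth.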

Tests used:
Test in all cases: NCI anticancer screen, dose series, 48 h
MDA-N = test system: MDA-N
NCI/ADR-RES ovarian = test system: NCI/ADR-RES ovarian
XF 498 CNS = test system: XF 498 CNS
CAKI-1 renal = test system: CAKI-1 renal
CCRF-CEM leukemia = test system: CCRF-CEM leukemia
MDA-MB-231 breast = test system: MDA-MB-231 breast
K-562 leukemia = test system: K-562 leukemia
BT-549 breast = test system: BT-549 breast
MCF7 breast = test system: MCF7 breast
KM20L2 colon = test system: KM20L2 colon
SK-MEL-2 melanoma = test system: SK-MEL-2 melanoma
T-47D breast = test system: T-47D breast
HS 578T breast = test system: HS 578T breast
NCI-H460 lung = test system: NCI-H460 lung
COLO 205 colon = test system: COLO 205 colon
SNB-78 CNS = test system: SNB-78 CNS
DU-145 prostate = test system: DU-145 prostate
PC-3 prostate = test system: PC-3 prostate
IGROV1 ovarian = test system: IGROV1 ovarian
HL-60(TB) leukemia = test system: HL-60(TB) leukemia
HOP-62 NSCLC = test system: HOP-62 NSCLC
HOP-92 NSCLC = test system: HOP-92 NSCLC
OVCAR-8 ovarian = test system: OVCAR-8 ovarian
MOLT-4 leukemia = test system: MOLT-4 leukemia
DMS 114 small cell lung = test system: DMS 114 small cell lung
DLD-1 colon = test system: DLD-1 colon
M19-MEL melanoma = test system: M19-MEL melanoma
SR leukemia = test system: SR leukemia
RXF 393 renal = test system: RXF 393 renal
OVCAR-3 ovarian = test system: OVCAR-3 ovarian
OVCAR-4 ovarian = test system: OVCAR-4 ovarian
KM12 colon = test system: KM12 colon
SF-295 CNS = test system: SF-295 CNS
SK-OV-3 ovarian = test system: SK-OV-3 ovarian
HOP-18 NSCLC = test system: HOP-18 NSCLC
RPMI-8226 leukemia = test system: RPMI-8226 leukemia
SNB-19 CNS = test system: SNB-19 CNS
DMS 273 small cell lung = test system: DMS 273 small cell lung
LXFL 529 NSCLC = test system: LXFL 529 NSCLC
SNB-75 CNS = test system: SNB-75 CNS
NCI-H226 lung = test system: NCI-H226 lung
U251 CNS = test system: U251 CNS
786-0 renal = test system: 786-0 renal
UACC-62 melanoma = test system: UACC-62 melanoma
A498 renal = test system: A498 renal
SN12C renal = test system: SN12C renal
SF-539 CNS = test system: SF-539 CNS
SK-MEL-5 melanoma = test system: SK-MEL-5 melanoma
TK-10 renal = test system: TK-10 renal
SF-268 CNS = test system: SF-268 CNS
SK-MEL-28 melanoma = test system: SK-MEL-28 melanoma
ACHN renal = test system: ACHN renal
NCI-H522 lung = test system: NCI-H522 lung
LOX IMVI melanoma = test system: LOX IMVI melanoma
HCC-2998 colon = test system: HCC-2998 colon
SW-620 colon = test system: SW-620 colon
OVCAR-5 ovarian = test system: OVCAR-5 ovarian
NCI-H23 lung = test system: NCI-H23 lung
HT29 colon = test system: HT29 colon
UO-31 renal = test system: UO-31 renal
M14 melanoma = test system: M14 melanoma
HCT-15 colon = test system: HCT-15 colon
A549 NSCLC = test system: A549 NSCLC
EKVX NSCLC = test system: EKVX NSCLC
MALME-3M melanoma = test system: MALME-3M melanoma
HCT-116 colon = test system: HCT-116 colon
UACC-257 melanoma = test system: UACC-257 melanoma

**Q.** How did the TGI (MDA-N) turn out when COC(=O)C1c2cc3c(c(O)c2C(O)CC1(C)O)C(=O)c1c(O)cc2c(c1C3=O)OC1OC2(C)C(O)C(N(C)C)C1O (stereo not given) was run?
**A.** 2910 nM

**Q.** What about the TGI (NCI/ADR-RES ovarian) of the same compound?
**A.** 3.05 µM

**Q.** And the TGI (XF 498 CNS)?
**A.** > 100 µM

**Q.** What about the TGI (CAKI-1 renal) of the same compound?
**A.** 14.2 µM

**Q.** And the TGI (CCRF-CEM leukemia)?
**A.** > 100 µM

**Q.** And the TGI (MDA-MB-231 breast)?
**A.** 2640 nM

**Q.** What about the TGI (K-562 leukemia) of the same compound?
**A.** > 100 µM

**Q.** What about the TGI (BT-549 breast) of the same compound?
**A.** 17.7 µM

**Q.** What about the TGI (MCF7 breast) of the same compound?
**A.** 2630 nM

**Q.** What about the TGI (KM20L2 colon) of the same compound?
**A.** > 100 µM

**Q.** And the TGI (SK-MEL-2 melanoma)?
**A.** > 100 µM

**Q.** And the TGI (T-47D breast)?
**A.** 4.6 µM

**Q.** And the TGI (HS 578T breast)?
**A.** 7.21 µM

**Q.** What about the TGI (NCI-H460 lung) of the same compound?
**A.** > 100 µM

**Q.** And the TGI (COLO 205 colon)?
**A.** > 32.4 µM

**Q.** And the TGI (SNB-78 CNS)?
**A.** > 100 µM

**Q.** And the TGI (DU-145 prostate)?
**A.** 3.44 µM

**Q.** What about the TGI (PC-3 prostate) of the same compound?
**A.** 2430 nM

**Q.** What about the TGI (IGROV1 ovarian) of the same compound?
**A.** > 39.7 µM

**Q.** What about the TGI (HL-60(TB) leukemia) of the same compound?
**A.** > 24.9 µM

**Q.** What about the TGI (HOP-62 NSCLC) of the same compound?
**A.** > 100 µM

**Q.** What about the TGI (HOP-92 NSCLC) of the same compound?
**A.** > 76.6 µM

**Q.** And the TGI (OVCAR-8 ovarian)?
**A.** > 100 µM

**Q.** What about the TGI (MOLT-4 leukemia) of the same compound?
**A.** > 100 µM

**Q.** What about the TGI (DMS 114 small cell lung) of the same compound?
**A.** > 100 µM

**Q.** What about the TGI (DLD-1 colon) of the same compound?
**A.** > 100 µM

**Q.** What about the TGI (M19-MEL melanoma) of the same compound?
**A.** > 100 µM

**Q.** What about the TGI (SR leukemia) of the same compound?
**A.** > 100 µM

**Q.** And the TGI (RXF 393 renal)?
**A.** > 100 µM

**Q.** And the TGI (OVCAR-3 ovarian)?
**A.** > 100 µM

**Q.** What about the TGI (OVCAR-4 ovarian) of the same compound?
**A.** > 100 µM

**Q.** And the TGI (KM12 colon)?
**A.** > 19.9 µM

**Q.** What about the TGI (SF-295 CNS) of the same compound?
**A.** > 100 µM

**Q.** What about the TGI (SK-OV-3 ovarian) of the same compound?
**A.** > 27.8 µM

**Q.** And the TGI (HOP-18 NSCLC)?
**A.** > 100 µM

**Q.** What about the TGI (RPMI-8226 leukemia) of the same compound?
**A.** > 100 µM

**Q.** What about the TGI (SNB-19 CNS) of the same compound?
**A.** > 100 µM

**Q.** What about the TGI (DMS 273 small cell lung) of the same compound?
**A.** > 100 µM

**Q.** What about the TGI (LXFL 529 NSCLC) of the same compound?
**A.** > 100 µM

**Q.** What about the TGI (SNB-75 CNS) of the same compound?
**A.** > 20.9 µM

**Q.** What about the TGI (NCI-H226 lung) of the same compound?
**A.** > 31.9 µM

**Q.** With CC(C)N1C(C)[C@@H](c2ccccc2)O[P@]1(=O)CC1=CCCCC1 (stereo not given in full) as the compound, how does the TGI (U251 CNS) read?
**A.** > 100 µM

**Q.** What about the TGI (XF 498 CNS) of the same compound?
**A.** > 100 µM

**Q.** What about the TGI (786-0 renal) of the same compound?
**A.** > 100 µM

**Q.** And the TGI (CCRF-CEM leukemia)?
**A.** > 100 µM

**Q.** What about the TGI (UACC-62 melanoma) of the same compound?
**A.** > 100 µM

**Q.** And the TGI (K-562 leukemia)?
**A.** > 100 µM

**Q.** And the TGI (KM20L2 colon)?
**A.** > 100 µM

**Q.** What about the TGI (SK-MEL-2 melanoma) of the same compound?
**A.** > 100 µM

**Q.** And the TGI (A498 renal)?
**A.** > 100 µM

**Q.** What about the TGI (SN12C renal) of the same compound?
**A.** > 100 µM

**Q.** And the TGI (SF-539 CNS)?
**A.** > 100 µM

**Q.** What about the TGI (SK-MEL-5 melanoma) of the same compound?
**A.** > 100 µM

**Q.** What about the TGI (NCI-H460 lung) of the same compound?
**A.** > 100 µM

**Q.** What about the TGI (COLO 205 colon) of the same compound?
**A.** > 100 µM

**Q.** And the TGI (TK-10 renal)?
**A.** > 100 µM

**Q.** What about the TGI (SF-268 CNS) of the same compound?
**A.** > 100 µM

**Q.** What about the TGI (SK-MEL-28 melanoma) of the same compound?
**A.** > 100 µM

**Q.** What about the TGI (IGROV1 ovarian) of the same compound?
**A.** > 100 µM

**Q.** What about the TGI (HL-60(TB) leukemia) of the same compound?
**A.** 57.4 µM

**Q.** And the TGI (HOP-62 NSCLC)?
**A.** > 100 µM

**Q.** And the TGI (HOP-92 NSCLC)?
**A.** 99.6 µM

**Q.** What about the TGI (OVCAR-8 ovarian) of the same compound?
**A.** > 100 µM

**Q.** And the TGI (MOLT-4 leukemia)?
**A.** > 100 µM

**Q.** And the TGI (ACHN renal)?
**A.** > 100 µM

**Q.** What about the TGI (DMS 114 small cell lung) of the same compound?
**A.** > 100 µM

**Q.** And the TGI (DLD-1 colon)?
**A.** > 100 µM

**Q.** And the TGI (NCI-H522 lung)?
**A.** > 100 µM

**Q.** What about the TGI (LOX IMVI melanoma) of the same compound?
**A.** > 100 µM

**Q.** And the TGI (M19-MEL melanoma)?
**A.** > 100 µM

**Q.** And the TGI (HCC-2998 colon)?
**A.** > 100 µM

**Q.** What about the TGI (SW-620 colon) of the same compound?
**A.** > 100 µM

**Q.** What about the TGI (OVCAR-5 ovarian) of the same compound?
**A.** > 100 µM

**Q.** And the TGI (SR leukemia)?
**A.** > 100 µM

**Q.** What about the TGI (RXF 393 renal) of the same compound?
**A.** > 100 µM

**Q.** And the TGI (OVCAR-3 ovarian)?
**A.** > 100 µM

**Q.** And the TGI (KM12 colon)?
**A.** > 100 µM

**Q.** And the TGI (NCI-H23 lung)?
**A.** > 100 µM

**Q.** And the TGI (HT29 colon)?
**A.** > 100 µM

**Q.** And the TGI (UO-31 renal)?
**A.** > 100 µM

**Q.** What about the TGI (SF-295 CNS) of the same compound?
**A.** > 100 µM

**Q.** And the TGI (SK-OV-3 ovarian)?
**A.** > 100 µM

**Q.** And the TGI (HOP-18 NSCLC)?
**A.** > 100 µM

**Q.** What about the TGI (RPMI-8226 leukemia) of the same compound?
**A.** > 100 µM

**Q.** What about the TGI (M14 melanoma) of the same compound?
**A.** > 100 µM

**Q.** And the TGI (SNB-19 CNS)?
**A.** > 100 µM

**Q.** And the TGI (HCT-15 colon)?
**A.** > 100 µM

**Q.** What about the TGI (A549 NSCLC) of the same compound?
**A.** > 100 µM

**Q.** What about the TGI (LXFL 529 NSCLC) of the same compound?
**A.** > 100 µM

**Q.** What about the TGI (SNB-75 CNS) of the same compound?
**A.** > 100 µM

**Q.** What about the TGI (EKVX NSCLC) of the same compound?
**A.** > 100 µM

**Q.** What about the TGI (MALME-3M melanoma) of the same compound?
**A.** > 100 µM

**Q.** What about the TGI (NCI-H226 lung) of the same compound?
**A.** > 100 µM

**Q.** And the TGI (HCT-116 colon)?
**A.** > 100 µM

**Q.** What about the TGI (UACC-257 melanoma) of the same compound?
**A.** > 100 µM
